Test results from PubChem BioAssay (NCI).
Values joined by “and” are separate entries in the source; they are usually repeats but may differ in a detail not shown here. Identical values can stand only once.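 Each compound was tested at five concentrations against cells in 96-well plates for 48 hours. GI50 marks 50% less growth. TGI: total growth inhibition.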

Key:
Assay in all cases: NCI tumour cell line growth inhibition, 48 h
A498 renal = tested on: A498 renal
DMS 273 small cell lung = tested on: DMS 273 small cell lung
SK-MEL-28 melanoma = tested on: SK-MEL-28 melanoma
SK-MEL-5 melanoma = tested on: SK-MEL-5 melanoma
SNB-19 CNS = tested on: SNB-19 CNS
SNB-75 CNS = tested on: SNB-75 CNS
TK-10 renal = tested on: TK-10 renal
UACC-257 melanoma = tested on: UACC-257 melanoma
XF 498 CNS = tested on: XF 498 CNS
SR leukemia = tested on: SR leukemia

O=S(O)CCCSSCCCCSSCCCS(=O)O
TGI (A498 renal): > 100 µM
TGI (DMS 273 small cell lung): > 100 µM
TGI (SK-MEL-28 melanoma): > 100 µM
TGI (SK-MEL-5 melanoma): > 100 µM
TGI (SNB-19 CNS): > 100 µM
TGI (SNB-75 CNS): > 100 µM
TGI (TK-10 renal): > 100 µM
TGI (UACC-257 melanoma): > 100 µM
TGI (XF 498 CNS): > 100 µM

C=CC(=O)N1CC[C@@H](Oc2nc(Nc3ccc(N4CCC(N5CCN(C)CC5)CC4)cc3)c(C(N)=O)nc2CC)C1
GI50 (A498 renal): > 100 µM
TGI (A498 renal): > 100 µM
GI50 (SK-MEL-28 melanoma): > 100 µM
TGI (SK-MEL-28 melanoma): > 100 µM
GI50 (SK-MEL-5 melanoma): > 100 µM
TGI (SK-MEL-5 melanoma): > 100 µM
GI50 (SNB-19 CNS): > 100 µM
TGI (SNB-19 CNS): > 100 µM
GI50 (SNB-75 CNS): > 100 µM
TGI (SNB-75 CNS): > 100 µM
GI50 (SR leukemia): > 100 µM
TGI (SR leukemia): > 100 µM
GI50 (TK-10 renal): > 100 µM
TGI (TK-10 renal): > 100 µM
GI50 (UACC-257 melanoma): > 100 µM
TGI (UACC-257 melanoma): > 100 µM

CC(=O)NC(Cc1ccccc1)C(=S)N1CCCC1 (stereo unspecified)
TGI (A498 renal): > 100 µM
TGI (DMS 273 small cell lung): > 100 µM
TGI (SK-MEL-28 melanoma): > 100 µM
TGI (SK-MEL-5 melanoma): > 100 µM
TGI (SNB-19 CNS): > 100 µM
TGI (SNB-75 CNS): > 100 µM
TGI (TK-10 renal): > 100 µM
TGI (UACC-257 melanoma): > 100 µM
TGI (XF 498 CNS): > 100 µM

C/C(=C1/N=C(c2ccccc2)OC1=O)c1cccs1
TGI (A498 renal): > 100 µM
TGI (SK-MEL-28 melanoma): > 100 µM
TGI (SK-MEL-5 melanoma): > 100 µM
TGI (SNB-19 CNS): > 100 µM
TGI (SNB-75 CNS): > 100 µM
TGI (SR leukemia): > 100 µM
TGI (TK-10 renal): > 100 µM
TGI (UACC-257 melanoma): > 100 µM

CCN(CC)CCC(CNc1c2ccc(Cl)cc2nc2ccc(OC)cc12)c1ccccc1 (stereo unspecified)
GI50 (A498 renal): 1.4 µM
TGI (A498 renal): 2.75 µM
GI50 (SK-MEL-28 melanoma): 1.84 µM
TGI (SK-MEL-28 melanoma): 3.27 µM
GI50 (SK-MEL-5 melanoma): 1.7 µM
TGI (SK-MEL-5 melanoma): 3.11 µM
GI50 (SNB-19 CNS): 1.36 µM
TGI (SNB-19 CNS): 4.2 µM
GI50 (SNB-75 CNS): 1.49 µM
TGI (SNB-75 CNS): 2.83 µM
GI50 (SR leukemia): 0.323 µM
TGI (SR leukemia): 1.18 µM
GI50 (TK-10 renal): 0.915 µM
TGI (TK-10 renal): 2.8 µM
GI50 (UACC-257 melanoma): 2.01 µM
TGI (UACC-257 melanoma): 3.63 µM

Cn1c([N+](=O)[O-])cnc1/C=C1\Oc2ccc(Cl)cc2C1=O
GI50 (A498 renal): 1.89 µM
TGI (A498 renal): 5.07 µM
GI50 (SK-MEL-28 melanoma): 1.14 µM
TGI (SK-MEL-28 melanoma): 5.14 µM
GI50 (SK-MEL-5 melanoma): 0.727 µM
TGI (SK-MEL-5 melanoma): 2.14 µM
GI50 (SNB-19 CNS): 1.77 µM
TGI (SNB-19 CNS): 6.95 µM
GI50 (SNB-75 CNS): 0.63 µM
TGI (SNB-75 CNS): 2.27 µM
GI50 (SR leukemia): 0.0676 µM
GI50 (TK-10 renal): 1.04 µM
TGI (TK-10 renal): 2.77 µM
GI50 (UACC-257 melanoma): 1.95 µM
TGI (UACC-257 melanoma): 5.2 µM

CN(C)c1ccc(/C=C/C(=O)c2ccc(Nc3nc(Nc4ccc(F)cc4)nc(Nc4ccc(Cl)cc4)n3)cc2)cc1
GI50 (A498 renal): 2.97 µM
TGI (A498 renal): 18.1 µM
GI50 (SK-MEL-28 melanoma): 3.88 µM
TGI (SK-MEL-28 melanoma): 52.7 µM
GI50 (SK-MEL-5 melanoma): 2 µM
TGI (SK-MEL-5 melanoma): 10.9 µM
GI50 (SNB-19 CNS): 17.1 µM
TGI (SNB-19 CNS): > 100 µM
GI50 (SNB-75 CNS): 9 µM
TGI (SNB-75 CNS): 38.9 µM
GI50 (SR leukemia): 1.06 µM
TGI (SR leukemia): 3.67 µM
GI50 (TK-10 renal): 11.3 µM
TGI (TK-10 renal): 81.3 µM
GI50 (UACC-257 melanoma): 11 µM
TGI (UACC-257 melanoma): 54.7 µM

COc1ccc2nccc(C3OC(=O)N4CCC(=O)CC34)c2c1 (stereo unspecified)
TGI (A498 renal): > 100 µM
TGI (SK-MEL-28 melanoma): > 100 µM
TGI (SK-MEL-5 melanoma): > 100 µM
TGI (SNB-19 CNS): > 100 µM
TGI (SR leukemia): > 100 µM
TGI (TK-10 renal): > 100 µM
TGI (UACC-257 melanoma): > 100 µM
TGI (XF 498 CNS): > 100 µM

COc1ccc(-c2nccn2-c2cc(OC)c(OC)c(OC)c2)cc1
GI50 (A498 renal): 0.909 µM
GI50 (SK-MEL-28 melanoma): 20.6 µM
TGI (SK-MEL-28 melanoma): > 100 µM
GI50 (SK-MEL-5 melanoma): 0.758 µM
TGI (SK-MEL-5 melanoma): > 69.5 µM
GI50 (SNB-19 CNS): 4.77 µM
TGI (SNB-19 CNS): > 35.6 µM
GI50 (SNB-75 CNS): 1.51 µM
TGI (SNB-75 CNS): > 76.3 µM
GI50 (SR leukemia): > 100 µM
TGI (SR leukemia): > 100 µM
GI50 (TK-10 renal): 10.7 µM
TGI (TK-10 renal): > 100 µM
GI50 (UACC-257 melanoma): 73.1 µM
TGI (UACC-257 melanoma): > 100 µM

CC(=O)NC1C(=O)CC(c2ccccc2)N(C)C1c1ccccc1 (stereo unspecified)
TGI (A498 renal): > 100 µM
TGI (DMS 273 small cell lung): > 100 µM
TGI (SK-MEL-28 melanoma): > 100 µM
TGI (SK-MEL-5 melanoma): > 100 µM
TGI (SNB-19 CNS): > 100 µM
TGI (SNB-75 CNS): > 100 µM
TGI (SR leukemia): > 100 µM
TGI (TK-10 renal): > 100 µM
TGI (UACC-257 melanoma): > 100 µM

CCOC(=O)C(Cc1ccc(N(CCCl)CCCl)cc1)NC(=O)C(CC(C)C)NC(C)=O (stereo unspecified)
GI50 (A498 renal): 2.29 µM
TGI (A498 renal): 10.6 µM
GI50 (SK-MEL-28 melanoma): 1.61 µM
TGI (SK-MEL-28 melanoma): 3.82 µM
GI50 (SK-MEL-5 melanoma): 2.45 µM
TGI (SK-MEL-5 melanoma): 9.82 µM
GI50 (SNB-19 CNS): 3.55 µM
TGI (SNB-19 CNS): 16.7 µM
GI50 (SNB-75 CNS): 1.94 µM
TGI (SNB-75 CNS): 8.4 µM
GI50 (SR leukemia): 0.0344 µM
TGI (SR leukemia): 6.89 µM
GI50 (TK-10 renal): 1.98 µM
TGI (TK-10 renal): 4.87 µM
GI50 (UACC-257 melanoma): 1.69 µM
TGI (UACC-257 melanoma): 5.66 µM

O=c1[nH]c2cccccc-2c1-c1nc2ccccc2[nH]1
TGI (DMS 273 small cell lung): 70.6 µM
TGI (SK-MEL-28 melanoma): 70.5 µM
TGI (SK-MEL-5 melanoma): 47.6 µM
TGI (SNB-19 CNS): 88 µM
TGI (SNB-75 CNS): 30.2 µM
TGI (SR leukemia): > 100 µM
TGI (TK-10 renal): > 100 µM
TGI (UACC-257 melanoma): > 100 µM
TGI (XF 498 CNS): 42.3 µM

CC(=O)OC1C(OC/C2=C/C3[C@@H](C(C)C)CC=C(C)[C@@H]3CC(OC(=O)/C=C/c3cn(C)cn3)[C@]3(C)C=C[C@@]2(O)O3)OCC(O)C1O (stereo partly specified)
GI50 (A498 renal): 0.0122 µM
TGI (A498 renal): 0.106 µM
GI50 (SK-MEL-28 melanoma): 0.0389 µM
TGI (SK-MEL-28 melanoma): > 50 µM
GI50 (SK-MEL-5 melanoma): 0.0165 µM
GI50 (SNB-19 CNS): 0.0364 µM
TGI (SNB-19 CNS): > 50 µM
GI50 (SNB-75 CNS): 0.00575 µM
TGI (SNB-75 CNS): 0.0319 µM
GI50 (SR leukemia): 0.0292 µM
TGI (SR leukemia): > 50 µM
GI50 (TK-10 renal): 0.465 µM
TGI (TK-10 renal): > 50 µM
GI50 (UACC-257 melanoma): 0.0188 µM
TGI (UACC-257 melanoma): > 50 µM

COc1cc(OC)c(-c2oc3ccccc3c(=O)c2O)c(OC)c1
TGI (A498 renal): > 100 µM
TGI (SK-MEL-28 melanoma): > 100 µM
TGI (SK-MEL-5 melanoma): > 100 µM
TGI (SNB-19 CNS): > 100 µM
TGI (SNB-75 CNS): > 100 µM
TGI (SR leukemia): > 100 µM
TGI (TK-10 renal): > 100 µM
TGI (UACC-257 melanoma): > 100 µM

C=C1C(=O)O[C@H]2[C@H]1CC/C(Cn1cc(CNC(=O)c3cc4ccccc4[nH]3)nn1)=C\CC[C@@]1(C)O[C@@H]21
GI50 (A498 renal): 18.9 µM
TGI (A498 renal): 36 µM
GI50 (SK-MEL-28 melanoma): 2.18 µM
TGI (SK-MEL-28 melanoma): 4.69 µM
GI50 (SK-MEL-5 melanoma): 8.1 µM
TGI (SK-MEL-5 melanoma): 23.4 µM
GI50 (SNB-19 CNS): 7.44 µM
TGI (SNB-19 CNS): 20.4 µM
GI50 (SNB-75 CNS): 10.4 µM
TGI (SNB-75 CNS): 22.4 µM
GI50 (SR leukemia): 2.69 µM
TGI (SR leukemia): 25.7 µM
GI50 (TK-10 renal): 4.41 µM
TGI (TK-10 renal): 15.2 µM
GI50 (UACC-257 melanoma): 4 µM
TGI (UACC-257 melanoma): 16 µM

CC(CCC/C=C/CCCN(C)C(=N)N)CC(C)C1OC(=O)C(C)C(O)/C=C/C(C)C(O)C(C)C(O)C(C)C(O)CCCC(O)CC2(O)OC(CC(OC(=O)CC(=O)O)CC(O)CC(O)C(C)C(O)/C=C/C=C/C1C)CC(O)C2O (stereo unspecified)
GI50 (A498 renal): 2.44 µM and 10.6 µg/mL
TGI (A498 renal): 7.16 µM and 21.3 µg/mL
GI50 (SK-MEL-28 melanoma): 2.04 µM and 2.59 µg/mL
TGI (SK-MEL-28 melanoma): 4.05 µM and 8.56 µg/mL
GI50 (SK-MEL-5 melanoma): 1.75 µM and 1.48 µg/mL
TGI (SK-MEL-5 melanoma): 3.18 µM and 3.33 µg/mL
GI50 (SNB-19 CNS): 4.9 µM and 10.1 µg/mL
TGI (SNB-19 CNS): 17 µM and 21.8 µg/mL
GI50 (SNB-75 CNS): 2.05 µM and 1.34 µg/mL
TGI (SNB-75 CNS): 4.94 µM and 7.44 µg/mL
GI50 (SR leukemia): 2.59 µM and 3.67 µg/mL
TGI (SR leukemia): 4.88 µM and 47 µg/mL
GI50 (TK-10 renal): 1.98 µM and 10.3 µg/mL
TGI (TK-10 renal): 4.17 µM and 21.4 µg/mL
GI50 (UACC-257 melanoma): 2.16 µM and 1.98 µg/mL
TGI (UACC-257 melanoma): 4.29 µM and 6.29 µg/mL
